This is an account of results in ChEMBL document CHEMBL1240343, “Transition state analogs of 5'-methylthioadenosine nucleosidase disrupt quorum sensing” (Nat Chem Biol, 2009).

Structures are written as SMILES. Activity calls are given as the source filed them. The calls are words filed in the database; no cut-off is given here.

The target in assay [1] is T1, 5'-methylthioadenosine/S-adenosylhomocysteine nucleosidase (Vibrio cholerae serotype O1 (strain ATCC 39315 / El Tor Inaba N16961), UniProt Q9KPI8).
T1 sequence (Q9KPI8 whole entry): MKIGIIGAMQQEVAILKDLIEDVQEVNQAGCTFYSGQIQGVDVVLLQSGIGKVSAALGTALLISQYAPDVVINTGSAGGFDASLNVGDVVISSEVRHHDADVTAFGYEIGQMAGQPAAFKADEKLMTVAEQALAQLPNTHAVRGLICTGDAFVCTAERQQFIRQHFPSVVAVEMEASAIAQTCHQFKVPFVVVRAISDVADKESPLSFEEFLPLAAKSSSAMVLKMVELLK
Nature of the assay: Binding affinity to His-tagged Vibrio cholerae recombinant MTAN expressed in Escherichia coli […].

For assay [2], the system named is Vibrio cholerae. Description: Antimicrobial activity against Vibrio cholerae N16961 assessed as effect on cell growth up to 1 uM. In kind it is functional, organism-based.
Assay [3] concerns Escherichia coli. Nature of the assay: Antibacterial activity MTAN-deficient Escherichia coli assessed as induction of growth deffect at 0.5 uM after 16 hrs. The format is functional, organism-based.
Assay [4] has as its target 5'-methylthioadenosine/S-adenosylhomocysteine nucleosidase (Escherichia coli O157:H7, UniProt P0AF14). Description: (§1) Inhibition of Escherichia coli O157:H7 EDL933 MTAN-mediated autoinducer-2 production assessed as inhibition of light induction in quorum-sensing Vibrio harveyi BB120 by luminescence induction assay.
Assay [5] addresses 5'-methylthioadenosine/S-adenosylhomocysteine nucleosidase (Escherichia coli O157:H7) (UniProt P0AF14). The assay is described as §1.
Assay [6] deals with T2, 5'-methylthioadenosine/S-adenosylhomocysteine nucleosidase (Vibrio cholerae serotype O1 (strain ATCC 39315 / El Tor Inaba N16961)) (UniProt Q9KPI8).
T2 sequence (whole entry): T1 sequence (Q9KPI8 whole entry)
Conditions: 1 uM.

The nature of assay [7]: Inhibition of Escherichia coli MTAN.
For assay [8], the system named is Escherichia coli. Description: Antibacterial activity Escherichia coli O157:H7 EDL933 assessed as induction of growth deffect at 0.5 uM after 16 hrs. The format is functional, organism-based.
For assay [9], the target named is T2, 5'-methylthioadenosine/S-adenosylhomocysteine nucleosidase (Vibrio cholerae serotype O1 (strain ATCC 39315 / El Tor Inaba N16961)). As to conditions: 1 uM. The source holds these as a separate data set.
Assay [10] has as its system Escherichia coli. Description: Ratio of Km to Ki for Escherichia coli MTAN.
Assay [11] deals with Vibrio cholerae. Description: Antibacterial activity against Vibrio cholerae N16961 at 1 uM after 24 hrs. The format is functional, organism-based.
Assay [12] deals with Escherichia coli. Nature of the assay: Inhibition of Escherichia coli O157:H7 EDL933 biofilm production at 1 uM after 24 hrs. Conditions: O157:H7 EDL933, 24 h. In kind it is functional.
Assay [13] deals with Escherichia coli. Nature of the assay: Antibacterial activity Escherichia coli O157:H7 EDL933 at 2.5 uM. In kind it is functional, organism-based.
Assay [14] relates to Vibrio cholerae. Description: Antibacterial activity against Vibrio cholerae N16961 at 2.5 uM. In kind it is functional, organism-based.
Assay [15] concerns Vibrio cholerae. Description: Inhibition of Vibrio cholerae N16961 biofilm production at 1 uM after 24 hrs. The format is functional. Conditions: N16961, 24 h.
Another assay deals with Vibrio harveyi. Nature of the assay: Inhibition of autoinducer-2 production in Vibrio harveyi BB120 assessed as inhibition of light induction by luminescence induction assay. Conditions: Vibrio harveyi ATCC BAA-1116. The format is functional.
For assay [16], the system named is Escherichia coli. Nature of the assay: Antibacterial activity Escherichia coli O157:H7 EDL933 at 1 uM. The format is functional, organism-based.
Assay [17] deals with Escherichia coli. Description: Antibacterial activity against Escherichia coli O157:H7 EDL933 at 1 uM after 24 hrs. The format is functional, organism-based.
Assay [18] concerns Vibrio cholerae. Description: Antibacterial activity against Vibrio cholerae N16961 at 1 uM. The format is functional, organism-based.

Chain of 5'-methylthioadenosine/S-adenosylhomocysteine nucleosidase (Escherichia coli O157:H7) (P0AF14 whole entry, looked up): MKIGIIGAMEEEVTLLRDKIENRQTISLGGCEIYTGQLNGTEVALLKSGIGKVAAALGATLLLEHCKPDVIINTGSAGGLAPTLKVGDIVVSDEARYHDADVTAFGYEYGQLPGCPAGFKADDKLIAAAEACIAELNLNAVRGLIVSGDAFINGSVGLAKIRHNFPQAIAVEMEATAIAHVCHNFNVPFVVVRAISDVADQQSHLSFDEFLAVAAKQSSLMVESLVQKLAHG
Chain of 5'-methylthioadenosine/S-adenosylhomocysteine nucleosidase (Escherichia coli O157:H7, UniProt P0AF14) (P0AF14 whole entry): as the sequence (P0AF14 whole entry, looked up) above

The term Kd denotes the constant that tells how readily two partners part at equilibrium. For `Nc1ncnc2c(CN3C[C@H](CSCc4ccccc4)[C@@H](O)C3)c[nH]c12`, the Kd in assay [1] was determined as 64 pM.

Usually IC50 stands for the concentration that gives 50% inhibition. A word on the inhibition: it is the change of the read-out against control, counted positive when it falls. As to `CSC[C@H]1CN(Cc2c[nH]c3c(N)ncnc23)C[C@@H]1O`, the outcome in the assay on Vibrio cholerae [2], with Escherichia coli [3] and in the assay on Escherichia coli [8] was inactive. In assay [4], the concentration for half-maximal inhibition (IC50) was 600000 pM. Also, the inhibition entry in assay [5] is “Dose-dependent effect”. Moreover, the inhibition result in assay [6] and in assay [9] was “Active” throughout. Moreover, the affinity in assay [7], expressed as Kd, was 0.2 pM.

Take `Nc1ncnc2c(CN3C[C@H](CSc4ccc(Cl)cc4)[C@@H](O)C3)c[nH]c12`: the result with Vibrio cholerae [2] was inactive. Besides, the figures for the Kd in assay [7] and in [1] were 0.047 pM and 330 pM, respectively. The Ratio in the assay with Escherichia coli [10] turned out to be 1e+08.

For `CCCCSC[C@H]1CN(Cc2c[nH]c3c(N)ncnc23)C[C@@H]1O`, the result in the assay with Vibrio cholerae [11], with Escherichia coli [13], with Vibrio cholerae [14], in the assay on Vibrio cholerae [2], in the assay on Escherichia coli [3] and with Escherichia coli [8] was inactive. The result in the assay with Escherichia coli [16], in the assay with Escherichia coli [17] and in the assay with Vibrio cholerae [18] was inactive. Besides, the inhibition at 1 µM turned out to be 18% in the assay with Escherichia coli [12] and 71% with Vibrio cholerae [15]. The inhibition result in assay [5] is “Dose-dependent effect”. In addition, the inhibition entry in the assay with Vibrio harveyi was “inactive”. In addition, the equilibrium dissociation constant (Kd) in [7] stood at 0.3 pM.

Take `CSC[C@H]1N[C@@H](c2c[nH]c3c(N)ncnc23)[C@H](O)[C@@H]1O`: the Kd in assay [1] was 10000 pM.

As for `Nc1ncnc2c([C@@H]3N[C@H](CSc4ccc(Cl)cc4)[C@@H](O)[C@H]3O)c[nH]c12`, the Kd in assay [1] is 2200 pM.

With `CCSC[C@H]1CN(Cc2c[nH]c3c(N)ncnc23)C[C@@H]1O`, the outcome in the assay on Vibrio cholerae [2] was inactive.

`CCSC[C@H]1N[C@@H](c2c[nH]c3c(N)ncnc23)[C@H](O)[C@@H]1O`: the equilibrium dissociation constant (Kd) in [1] is 1600 pM.

Consider `Nc1ncnc2c([C@@H]3N[C@H](CSCc4ccccc4)[C@@H](O)[C@H]3O)c[nH]c12`, for which the dissociation constant Kd in [1] was 2100 pM.
